According to paper PMC7900953, “Location of a single histidine within peptide carriers increases mRNA delivery” (The Journal of Gene Medicine, 2020):

Legend:
MDA‐MB‐231 cells [1] = assay: Cell viability assay (trypan blue exclusion); type: cell-based; conditions: polymer alone (4 µg), 5 h in Opti-MEM, then DMEM/10% FBS 19 h
Procedure: MDA‐MB‐231 cells were seeded at 5.0 × 10^4 per well in a 24‐tissue culture plate and incubated overnight in DMEM supplemented with 10% fetal bovine serum (FBS) serum. The media was then changed to Opti‐MEM and the cells were treated with either the polymer (4 μg) or the polyplex (4 μg of HK; 1 μg of mRNA) for 5 hours. After the media was changed to DMEM/10% FBS for 19 hours, the cell viability was measured using the trypan blue cell exclusion assay (Trypan Blue solution, 0.4%; Sigma‐Aldrich, St Louis, MO, USA). ^41
After the medium was changed to Opti-MEM, either the polymer (4 µg) or the polyplex (4 µg HK; 1 µg mRNA) was added to the cells for 5 h. The media was then changed to DMEM/10% FBS for 19 h and the cell viability was determined using the trypan cell exclusion assay.

MDA‐MB‐231 cells [2] = assay: In vitro uptake of HK polyplexes by flow cytometry; type: cell-based; conditions: HK:mRNA 4:1, 1, 2 and 4 hours, DMEM/10% FBS
Procedure: Intracellular uptake of polymer–mRNA complex in MDA‐MB‐231 was measured by flow cytometry. Twenty‐four hours before the treatment, cells were plated in a 24‐well plate. The polymer‐mRNA polyplex was formed in Opti‐MEM at a ratio of 4:1 at room temperature for 30 minutes. After the cell culture medium was replaced with DMEM/10% FBS, H3K(+H)4b‐ or H3K4b‐mRNA polyplexes (cyanine 5'‐labeled mRNA; Trilink Biotechnologies, Inc.) were added to the cells. At several time points (1, 2 and 4 hours), transfected cells were harvested, fixed with 4% formalin/1% glutaraldehyde, and resuspended in PBS buffer for analysis. The results from the fluorescently labeled MDA‐MB‐231 cells were then acquired using Cytoflex (Beckman Coulter) and analyzed using CytExpert, version 2.3.0.84 (Beckman Coulter) on the flow cytometer.
Figure S2. Uptake of cyanine 5-labeled mRNA uptake into MDA-MB-231 cells with different peptide carriers. The percentages of cells containing labeled mRNA 1, 2, 4 hours after transfection with H3K(+H)4b (upper panel) or with H3K4b (lower panel).

MDA‐MB‐231 cells [3] = assay: In vitro uptake of HK polyplexes by fluorescence microscopy; type: cell-based; conditions: HK:mRNA 4:1; for Aggregates of polyplexes seen by fluorescence microscopy: 4 hours after transfection
Procedure: With the mRNA labeled with Cy5, HK polyplexes at a ratio of 4:1 (HK:mRNA) were prepared as described for in vitro transfection. The labeled polyplexes were incubated with MDA‐MB‐231 cells for four hours in Opti‐MEM. After the cells were washed with phosphate‐buffered saline (PBS) (Quality Biologicals, Gaithersburg, MD, USA), they were incubated for 30 minutes with LysoTracker Green DND‐26 (Cell Signaling Technology, Inc., Danvers, MA, USA), a dye that stains acidic endosomes and lysosomes. Then after the cells were washed twice with PBS and once with 1% Triton‐X, they were fixed (4% formalin/1% glutaraldehyde) and the nuclei were stained with chromatin dye Hoechst 33342 (Invitrogen, Carlsbad, CA, USA). Images were obtained with a Nikon TE2000‐S (Nikon, Tokyo, Japan) with a mercury lamp light source usng the filter sets: Ex‐357(20)/Em‐460(60) (Hoechst); Ex‐480(30)/Em‐535(45) (Lysotracker green DND‐26); Ex‐620(50)/Em‐690(50) (Cy5‐labeled‐mRNA). Red/green ratios were measured on 20 intracellular acidic vesicles (one per cell) using ImageJ, version 1.52. ^42
FIGURE 5 Fluorescence images of different mRNA polyplexes within acidic vesicles of MDA‐MB‐231 cells. (A) Four hours after transfection with labeled mRNA by H3K(+H)4b (upper) or H3K4b (lower) carriers, intracellular acidic vesicles were stained with Lysotracker green. The cells were then fixed, and the nuclei were stained with Hoesch 33342 dye. Images were obtained with a Nikon TE2000‐S using a mercury lamp light source and the filter sets delineated in the Materials and methods (green, acidic vesicles; red, cynanine 5‐labeled mRNA; blue, nuclei labeled with Hoescht dye). […] Arrows indicate the irregularly shaped mRNA aggregates frequently observed with H3K4b carrier. (B) Analysis of the amount of HK (H3K4b or H3K(+H)4b) polyplexes within acidic endosomal vesicles of MDA‐MB‐231 cells. Images of HK polyplexes labeled with cyanine5 (red emission) were imported into endosomal vesicles (green emission). The red/green ratios were measured on 20 intracellular acidic vesicles using ImageJ. […]

trypsin = assay: Stability of HK polyplexes to enzymatic degradation; type: in vitro ADME; conditions: trypsin (0.025%) 30 or 60 min; HK (0.5, 1, 4 µg):mRNA (1 µg); release of mRNA on 1% agarose gel
Procedure: After preparation of the H3K4b‐ or H3k(+H)4b‐mRNA polyplexes [w:w; HK (0.5, 1 or 4 μg):mRNA (1 μg)], these polyplexes were incubated with trypsin (0.025%) for 30 or 60 minutes. The HK polyplexes were then loaded on a 1% agarose gel and electrophoresis was carried out at 75 V for 30 minutes in TAE buffer. The gel was stained in a TAE buffer containing ethidium bromide (1 μg/ml) for 10 minutes.
[picture] Figure S3. Stability of HK polyplexes to enzymatic degradation. After preparation of the H3K4b or H3k(+H)4b mRNA polyplexes (wt:wt; HK (0.5, 1, 4 µg):mRNA (1 µg)), these polyplexes were incubated with trypsin (0.025%) for 30 or 60 min. The HK polyplexes were then loaded on a 1% agarose gel and electrophoresis was carried out at 75 V for 30 min in TAE buffer. The gel was stained in a TAE buffer containing ethidium bromide (1 µg/ml) for 10 min.

[4] = cited from earlier work
cytokines = conditions: in vitro and in vivo; cited from earlier work

Substance	% Viability (MDA‐MB‐231 cells [1])	Uptake of Cy5-labelled mRNA polyplexes into cells (MDA‐MB‐231 cells [2])	Aggregates of polyplexes seen by fluorescence microscopy (MDA‐MB‐231 cells [3])	Localization of polyplexes within acidic endosomal vesicles (MDA‐MB‐231 cells [3]; 4 hours in Opti‐MEM, red/green ratios on 20 vesicles, p < 0.001)	Stability of mRNA polyplex to trypsin (trypsin)	Carrier of siRNA [4]	Cytokine induction by siRNA polyplex (cytokines)
R = KHHHKHHHKHHHHKHHHK [H3K(+H)4b, four‐branched analogue of H3K4b with one extra histidine in the second ‐HHHK‐ motif]	96.3%	imported into the cells more than H3K4b polyplexes	not observed	localized within the acidic endosomal vesicles significantly more than H3K4b polyplexes	reduced stability to trypsin at the 1:2 and 1:1 ratios compared to the H3k(+H)4b polyplex	effective carriers of siRNA	
R = KHHHKHHHKHHHKHHHK [H3K4b]	95.6%		likely extracellular aggregates			effective carriers of siRNA	induced cytokines to a significantly greater degree in vitro and in vivo than the H3K(+H)4b‐siRNA polyplexes
